# From publication PMC11770808, “Interplay between conformational dynamics and substrate binding regulates enzymatic activity: a single-molecule FRET study” (Chemical Science, 2025)
# Where two headings read alike, the source gives them in different places.
# Target: T1, adenylate kinase (AK), wild-type (WT) (Escherichia coli, UniProt P69441)
# T1 construct: gene adk; purified recombinant, details only in ESI
# Assay: microscale thermophoresis
# Type: binding
# T1 sequence (P69441 whole entry): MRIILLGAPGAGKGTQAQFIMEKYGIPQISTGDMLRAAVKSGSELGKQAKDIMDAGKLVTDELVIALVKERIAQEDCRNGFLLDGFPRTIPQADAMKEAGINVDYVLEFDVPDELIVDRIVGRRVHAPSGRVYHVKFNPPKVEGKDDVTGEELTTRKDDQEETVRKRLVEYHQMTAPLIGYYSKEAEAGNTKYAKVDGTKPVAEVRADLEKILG
Structure (SMILES),Kd (read-out: Kd (AMP)),Kd (read-out: WT)
Nc1ncnc2c1ncn2[C@@H]1O[C@H](COP(=O)(O)O)[C@@H](O)[C@H]1O [AMP],332 ± 40 µM,
Nc1ncnc2c1ncn2[C@@H]1O[C@H](COP(=O)(O)OP(=O)(O)OP(=O)(O)O)[C@@H](O)[C@H]1O [ATP],,159 ± 17 µM
